# Test results: ChEMBL document CHEMBL1146431, “Isolation and structure elucidation of ardisenone: a new, cytotoxic alkenylphenol from Ardisia iwahigensis” (J Nat Prod, 1997)
# Columns and labels:
# Type in all cases: functional, cell-based
# KB = assay: Cytotoxicity against human KB cells by SRB assay
# [1] = Cytotoxicity against human vinblastine-resistant KBV1 cells by SRB assay in presence of vinblastine; details: KB-V1
# [2] = Cytotoxicity against human vinblastine-resistant KBV1 cells by SRB assay in absence of vinblastine; details: KB-V1
# LNCaP = assay: Cytotoxicity against human LNCAP cells by SRB assay
# Lu1 = assay: Cytotoxicity against human Lu1 cells by SRB assay
# [3] = Cytotoxicity against human BC1 cells by SRB assay
# Col2 = assay: Cytotoxicity against human Col2 cells by SRB assay
structure (smiles),measurement,setting,value
COc1cc(O)cc(CC(=O)CCC/C=C\CCCCCCCCC(=O)c2cc(O)cc(OC)c2)c1 [ARDISENONE],IC50,KB,13 µg/mL
same,IC50,[1],8 µg/mL
same,IC50,[2],6.9 µg/mL
same,IC50,LNCaP,11 µg/mL
same,IC50,Lu1,4.9 µg/mL
same,IC50,[3],8.5 µg/mL
same,IC50,Col2,15 µg/mL
